Test results from paper PMC6159992, “Selective disruption of TLR2-MyD88 interaction inhibits inflammation and attenuates Alzheimer’s pathology” (The Journal of Clinical Investigation, 2018).

Experiments:
[1] = Hippocampal level of WT TIDM after intranasal administration (ESI-MS); assay type: in vivo; conditions: male, B6SJL-Tg(APPSwFlLon,PSEN1*M146L*L286V)6799Vas/J (5XFAD), mouse, hippocampus (brain tissue), inhaled or intranasal, Tg mice, 1 intranasal dose 0.1 mg/kg BW, 60 minutes after administration, read-out: level of WT TIDM peptide in hippocampus
Description: It is becoming clear that glial inflammation plays an important role in the loss of neurons in AD and other neurodegenerative disorders ([7], [9], [22]–[24]). […] We first determined whether the WT TIDM peptide could enter into the hippocampus. Tg mice were treated with TIDM peptides intranasally, and after 60 minutes of administration, we detected WT TIDM peptide in the hippocampus of Tg mice by electrospray ionization–coupled mass spectrometry (ESI-MS) (Figure 5, A and C). […] The level of WT TIDM peptide was 23.33 ± 14.14 ng/g brain tissue in the hippocampus of WT TIDM–treated Tg mice compared with nil in the saline-treated Tg mice. By infrared scanning, we also detected TIDM peptide in hippocampus after intranasal treatment (Supplemental Figure 10). […]
Tg mice (6 months of age) received 1 intranasal dose of WT TIDM peptide (0.1 mg/kg BW). After 60 minutes of treatment, mice were perfused with sterile saline, and hippocampi were homogenized and supernatant analyzed for WT TIDM by ESI-MS (A, WT TIDM standard; B, untreated 5XFAD-Tg; C, WT TIDM–treated 5XFAD-Tg). […] Cells positive for Iba-1 (E, CA1; F, CA3), p-p65 (G, CA1; H, CA3), and iNOS (I, CA1; J, CA3) were counted in 2 sections (2 images/slide) from each of 6 different mice (n = 6) per group. ^†P < 0.001 versus non-Tg; ^††P < 0.001 versus Tg; 2-sample t test. […]

[2] = test system: 5XFAD-Tg mice; assay: Gross motor activity of 5XFAD-Tg mice; assay type: in vivo, mouse; conditions: 0.1 mg/kg BW/2 d intranasal, 30 days, n=8
Source text: The ultimate objective of neuroprotection in AD is to improve and/or protect memory. Major functions of the hippocampus are to generate and organize long-term memory and spatial learning. Therefore, we examined whether WT TIDM peptide protected memory and learning in Tg mice. As expected, Tg mice took much longer to find the food reward hole and had greater latency (P < 0.001 [= 0.0000213]) with higher errors (P < 0.001 [= 0.0000251]) in the Barnes maze as compared with non-Tg mice. […] Likewise, on the T-maze test, untreated Tg mice also had fewer positive turns (P < 0.001 [= 0.0000440]) and a higher number of negative turns (P < 0.001 [= 0.000223]) than did age-matched non-Tg mice (Figure 6, L and M). […] We also monitored the short-term memory of Tg mice using the novel object recognition (NOR) test. […]
treatment, hippocampal extracts of all groups of mice (n=4 per group) were analyzed for protein levels of Aβ by Western blot using 82E1 mAb. […] Results were analyzed by […]
Figure S14. […] After 30d of treatment, ELISA quantification of Aβ1-40 (A, C & E) and Aβ1-42 (B, D & F) was performed in serum (A & B) and TBS (C & D) and (TBS+Triton X-100) (E & F) extracted hippocampal tissues. […]
Figure S15. […] After 30d of treatment, hippocampal extracts of all groups of mice (n=4 per group) were analyzed for phospho-tau and total tau by Western blot. […] Results were analyzed by two-sample t-tests. […]

[3] = biological target: T1, cMyc-tagged C-terminal TIR domain of TLR2 protein (cTLR2), purified recombinant protein (mouse, UniProt Q9QUN7 640-784); assay: SPR; cTLR2 (0.8 mg/ml, PBS) immobilised on a 500-kDa carboxymethyl dextran gold sensor slide (Reichert 4SPR); WT TIDM and mTIDM peptides injected in PBS running buffer, 30 μl/min, 2.5 min association, 3 min dissociation; KD from the response at equilibrium versus peptide concentration; conditions: both partners purified
T1 construct: TLR2, mouse, C-terminal TIR domain, amino acids 640-784; subcloned from the full-length construct pLenti-cMyc-DDK/Tlr2 (Origene); also called cMyc-tagged cTLR2 recombinant protein; TLR2 (in the SPR methods)
T1 sequence (Q9QUN7 640-784): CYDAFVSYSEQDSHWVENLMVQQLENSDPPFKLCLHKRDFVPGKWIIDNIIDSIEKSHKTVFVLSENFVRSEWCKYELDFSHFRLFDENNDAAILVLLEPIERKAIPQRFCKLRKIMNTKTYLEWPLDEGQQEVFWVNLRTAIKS

CC[C@H](C)[C@H](NC(=O)[C@H](CCCCN)NC(=O)[C@@H](NC(=O)[C@H](CCC(N)=O)NC(=O)[C@H](CCCNC(=N)N)NC(=O)[C@@H](N)CC(=O)O)[C@@H](C)CC)C(=O)N[C@@H](Cc1c[nH]c2ccccc12)C(=O)N[C@@H](Cc1ccccc1)C(=O)N[C@@H](CCC(N)=O)C(=O)N[C@@H](CC(N)=O)C(=O)N[C@@H](CCCNC(=N)N)C(=O)N[C@@H](CCCNC(=N)N)C(=O)N[C@@H](CCSC)C(=O)N[C@@H](CCCCN)C(=O)N[C@@H](Cc1c[nH]c2ccccc12)C(=O)N[C@@H](CCCCN)C(=O)N[C@@H](CCCCN)C(=O)N1CCC[C@H]1C(=O)NCC(=O)N[C@@H](C)C(=O)N[C@@H](Cc1c[nH]cn1)C(=O)N[C@@H](CCC(N)=O)C(=O)N[C@@H](CCCCN)C(=O)O [WT TIDM]
tissue level at time at 1 h [1]: 23.3 ± 14.1 ng/g
gross motor activity (movements, horizontal activity, rest time, stereotypy) [2]: neither the WT TIDM nor the mTIDM peptide modulated the gross motor activity of Tg mice

CC[C@H](C)[C@H](NC(=O)[C@H](CCCCN)NC(=O)[C@@H](NC(=O)[C@H](CCC(N)=O)NC(=O)[C@H](CCCNC(=N)N)NC(=O)[C@@H](N)CC(=O)O)[C@@H](C)CC)C(=O)N[C@@H](Cc1c[nH]c2ccccc12)C(=O)N[C@@H](Cc1ccccc1)C(=O)N[C@@H](CCC(N)=O)C(=O)N[C@@H](CC(N)=O)C(=O)N[C@@H](CCCNC(=N)N)C(=O)N[C@@H](CCCNC(=N)N)C(=O)N[C@@H](CCSC)C(=O)N[C@@H](CCCCN)C(=O)N[C@@H](Cc1c[nH]c2ccccc12)C(=O)N[C@@H](CCCCN)C(=O)N[C@@H](CCCCN)C(=O)N1CCC[C@H]1C(=O)NCC(=O)N[C@@H](Cc1c[nH]c2ccccc12)C(=O)N[C@@H](Cc1c[nH]cn1)C(=O)N[C@@H](CCC(N)=O)C(=O)N[C@@H](CC(=O)O)C(=O)O [mTIDM]
gross motor activity (movements, horizontal activity, rest time, stereotypy) [2]: neither the WT TIDM nor the mTIDM peptide modulated the gross motor activity of Tg mice

B1: WT TIDM peptide (peptide corresponding to the TLR2-interacting domain of MyD88, with the Antennapedia homeodomain sequence) (peptide)
peptide: DRQIKIWFQNRRMKWKKPGAHQK
notes: Drosophila; the printed order is kept
Kd [3]: 8 µM

B2: mutated TIDM peptide (peptide)
peptide: DRQIKIWFQNRRMKWKKPGWHQD
notes: Drosophila; MyD88, mouse, residues 245-250 of the CD loop with two underlined mutations (A to W, K to D); positions 247 and 250 counted from the printed limits 245 and 250; also called mTIDM
Kd [3]: 19 µM
